According to US20200209247A1, “METHODS FOR IDENTIFYING MYELOMA TUMOR-INITIATING CELLS AND TARGETED THERAPY” (UNIVERSITY OF IOWA RESEARCH FOUNDATION, priority 2017, published 2020):

System: RPMI-8226, RPMI-8226-R5 (a drug resistant cell line) cells
Type: cell-based, human
Details: treated in vitro for 72 h; RT-PCR
Description: Drug resistance is a critical characteristic of TICs^43. To examine whether CD24^+ cells show higher resistance to chemotherapeutic drugs, the soft agar clonogenic formation assay was employed to examine the response to multiple drugs. […] The ARP1 cells from the 1st passage were collected and re-plated in methylcellulose dishes. CD24^+ and CD24^− ARP1 MM cells in the 2nd passage were treated with bortezomib (2 and 10 nM) or carfilzomib (2.5 and 12.5 nM) or melphalan (2.5 and 12.5 μM) for 2 weeks. CD24^+ ARP1 (FIGS. 5A & 5B) or OCI-MY5 (FIGS. 5C & 5D) MM cells were more pronounced resistant (>2.5-fold) than CD24^− ARP1 or OCI-MY5 MM cells. To directly confirm whether CD24^+ population are enriched upon chemotherapy, we treated RPMI-8226, RPMI-8226-R5 (a drug resistant cell line) cells with bortezmib or melphalan in vitro for 72 h (data not shown).

| Structure (SMILES) | expression of CD24 in survival cells compared to untreated MM cells |
| --- | --- |
| CC(C)C[C@H](NC(=O)[C@H](Cc1ccccc1)NC(=O)c1cnccn1)B(O)O [bortezomib] | upregulated |
| N[C@@H](Cc1ccc(N(CCCl)CCCl)cc1)C(=O)O [melphalan] | upregulated |
